# Columns and labels:
# Molm-13 cells = assay: Cell differentiation (CD14, CD11b, FACS) in Molm-13 cells; type: cell-based, human; settings: 3 μM for 5 days
# Experimental: Treatment of Molm-13 cells with compound 1 for 7 days at 1 and 3 µM caused significant apoptosis of 22.7% and 67.6%, respectively (Fig. 6c and Additional file 1: Fig. S6).
# For Annexin V apoptosis assay, 10^5 cells/mL were incubated with increasing concentrations of a compound for 7 days. Apoptosis was determined using the FITC Annexin V Apoptosis Detection Kit I (BD Bioscience) using the manufacturer’s protocol. For other FACS assays, cells were labeled with fluorochrome-conjugated monoclonal antibodies against human CD14 and CD11b (BD Biosciences) according to the manufacturer’s recommendation. Cells were analyzed using a FACS Calibur (BD Biosciences/Applied Biosystems), and data were processed using the program Flowjo (version7.6.5).
# RPMI-8226 cells = assay: Antiproliferation assay (XTT), RPMI-8226; settings: Homo sapiens, RPMI-8226, 168 h, read-out: Antiproliferative activity, EC50, RPMI-8226
# Experimental: Proliferation inhibition assays for suspension blood cancer cells were performed using an XTT assay kit (Biotium), following our previous methods [22]. EC50 values were determined using Prism 5 and from at least three independent experiments.
# Molm-13 leukemia = assay: Subcutaneous Molm-13 leukemia xenograft in NOD-SCID mice; type: in vivo
# Experimental: In vivo antitumor activity of compound 1 was evaluated in a commonly used mouse model of Molm-13 leukemia. First, in vivo toxicity was assessed in C57BL/6 mice. […] Next, 10^6 Molm-13 cells were injected subcutaneously into NOD-SCID mice, which developed palpable tumors in ~ 1 week and grew rapidly.
# All of the mouse studies were conducted in strict compliance with an […] protocol. NOD-SCID mice (6–8 weeks old, from Jackson lab) were obtained and maintained under specific pathogen-free conditions. 10^6 Molm13 cells in medical grade saline were inoculated subcutaneously, and palpable tumors (2–3 mm in diameter) were developed in ~ 1 week. Mice were treated with compound 1 (30 mg/kg/day for 13 days) in saline (0.1 mL) administered intraperitoneally. Tumors were measured every day and estimated by using the formula a × b^2/2.
# Hela cells = assay: Antiproliferation assay, Hela; settings: Homo sapiens, 168 h, read-out: Antiproliferative activity, EC50, Hela
# [1] = test system: AF9, AFF4, cyclin-T1 and H3K79me2; assay: ChIP-qPCR, AF9, AFF4, cyclin-T1 and H3K79me2 at gene promoters of Myc and HoxA9; type: cell-based; settings: MV4;11 cells, 500 nM, 4 days
# Experimental: Chromatin immunoprecipitation (ChIP) followed by qPCR was used to further probe the activity of compound 1 in the gene promoters of Myc and HoxA9, two characteristic MLL1 target genes.
# Upon treatment with a compound for 4 days, 10^7 MV4;11 cells were cross-linked with 1% formaldehyde at room temperature for 10 min, followed by the addition of 125 mM glycine. Cells were lysed with nuclear lysis buffer and sonicated to ~ 100–1000 bp fragments, which was incubated at 4 °C overnight with an antibody and IgG (C15410206, Diagenode). Protein A/G Magnetic Beads (10 µL, Novus Biologicals) were added and incubated for 2 h. The beads were washed 3 × with RIPA buffer and 2 × with TE buffer. DNA on the beads was eluted for 2 h at 68 °C in 100 μL of an elution buffer (20 mM Tris pH 7.5, 5 mM EDTA, 50 mM NaCl, 1% SDS, 50 μg/mL proteinase K) (2 ×), and purified using a ChIP DNA Clean & Concentrator kit (Novus Biologicals). qPCR was done using the method described above.
# [2] = test system: AF9, AFF4, cyclin-T1, DOT1L; assay: Other SEC-related proteins in nucleus of MV4;11 cells (Western blot); type: cell-based; settings: 4 days
# Source text: We further investigated how compound 1 affects ENL, AF9 and other proteins of SEC in the cytoplasmic and nuclear compartments, the latter of which are more relevant to the functions of these transcription cofactors. […] Upon treatment of MV4;11 cells with these compounds for 4 days, cytoplasmic and nuclear proteins were separated and subjected to SDS-PAGE/Western blot. […] In addition, nuclear levels of H3K79 methylation, the product of DOT1L catalyzed reactions, were not consistently affected by compound 1.
# 3 × 10^6 cells/well were treated with increasing concentrations of a compound for 1 day, and whole proteins were extracted. Equal amounts of proteins were separated on SDS-PAGE and transferred to PVDF membranes. The blots were probed with primary antibodies, followed by anti-rabbit IgG (Thermo Scientific) secondary antibodies. The primary antibodies against ENL (Cell signaling #14893), AF9 (Novusbio #NB100-1565), DOT1L (Cell signaling #77087), AFF4 (Abcam #ab103586), Cyclin T1 (Cell signaling #81464), H3K79me2 (Cell signaling #5427), H3K79me1 (Cell signaling #9398), Histone H3 (Cell signaling #4499), FLAG (Sigma-Aldrich #F1804), β-Actin (Cell signaling #4970) were used in this study.
smiles,measurement,setting,value
C[C@H]1CCCN1Cc1nc2cc(NC(=O)c3ccc4c(cnn4CCCCCCCCNc4cccc5c4C(=O)N(C4CCC(=O)NC4=O)C5=O)c3)ccc2[nH]1 (some centres unmarked) [Compound 1],Cell differentiation (cells with high levels of CD14 and CD11b),Molm-13 cells,induced cell differentiation
same,EC50,RPMI-8226 cells,1200 ± 230 nM
same,Body weight,Molm-13 leukemia; 30 mg/kg/day for Day 3–15,did not cause significant weight losses
same,Tumor growth,"Molm-13 leukemia; 30 mg/kg/day for Day 3–15, intraperitoneally",significantly inhibited tumor growth
same,Animal survival,"Molm-13 leukemia; 30 mg/kg/day for Day 3–15, intraperitoneally, p < 0.01, 30 mg/kg/day",prolonged animal survivals
same,EC50,Hela cells,> 50 µM
same,"AF9, AFF4, cyclin-T1 and H3K79me2 at gene promoters of Myc and HoxA9",[1],did not significantly lower down
same,"Levels of AF9, AFF4, cyclin-T1 and DOT1L",[2],not significantly decreased

# From article PMC8994274, “A proteolysis-targeting chimera molecule selectively degrades ENL and inhibits malignant gene expression and tumor growth” (Journal of Hematology & Oncology, 2022)
